Reference: patent publication US9637469B2, “Pyridine derivative” (Teijin Pharma Limited, priority 2012, dated 2017)

Molecular target: T1, human URAT1 (Homo sapiens, UniProt Q96S37)
T1 construct: Full-length cDNA of human URAT1 (hURAT1)
T1 sequence (Q96S37 1-553): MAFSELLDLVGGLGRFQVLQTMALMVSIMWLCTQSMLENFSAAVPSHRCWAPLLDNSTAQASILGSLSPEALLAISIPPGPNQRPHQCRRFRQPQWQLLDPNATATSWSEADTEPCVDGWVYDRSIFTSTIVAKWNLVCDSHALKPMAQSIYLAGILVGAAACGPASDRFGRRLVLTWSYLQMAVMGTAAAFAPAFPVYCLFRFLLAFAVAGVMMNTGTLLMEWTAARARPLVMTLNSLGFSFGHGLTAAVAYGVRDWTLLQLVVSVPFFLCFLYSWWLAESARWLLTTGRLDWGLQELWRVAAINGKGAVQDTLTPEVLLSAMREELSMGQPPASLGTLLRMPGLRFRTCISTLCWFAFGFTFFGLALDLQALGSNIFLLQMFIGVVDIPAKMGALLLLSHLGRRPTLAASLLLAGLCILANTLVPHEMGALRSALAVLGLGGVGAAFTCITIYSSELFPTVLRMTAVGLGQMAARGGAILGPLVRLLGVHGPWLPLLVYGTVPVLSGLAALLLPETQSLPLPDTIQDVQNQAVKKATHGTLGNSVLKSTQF
Test: Test for inhibition of uric acid transport using human URAT1-expressing cells;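 note: three stars up to 0.2 µM two stars 0.2-2 µM one star 2-20 µM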
Assay type: cell-based
Details: HEK 293 cells expressing human URAT1; 14C-labeled uric acid 25 μM; uptake 37° C. for 5 min
Method in brief: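 IC50 values reflect inhibition of ¹⁴C-uric acid uptake (25 μM final, 5 min, 37 °C) by compound. Cells were HEK293 stably expressing full-length human URAT1, preincubated in Na-gluconate-substituted HBSS. Radioactivity in lysates was expressed relative to DMSO control as 100%.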

Inhibitory Activity (IC50 of uric acid transport inhibition), * * *:
O=C(NS(=O)(=O)C1CC1)c1ccc(-c2cncc(F)c2)n1Cc1cc(Cl)ccc1Cl [Compound B27, N-(cyclopropylsulfonyl)-1-(2,5-dichlorobenzyl)-2-(5-fluoropyridin-3-yl)-1H-pyrrole-5-carboxamide]
CS(=O)(=O)NC(=O)c1ccc(-c2cccnc2)n1Cc1cccc2ccccc12 [Compound B24, N-(methylsulfonyl)-1-(naphthalen-1-ylmethyl)-2-(pyridin-3-yl)-1H-pyrrole-5-carboxamide]
Cc1ccc(Cl)c(Cn2c(-c3cccnc3)nc(C)c2C(=O)O)c1 [Compound A78, 1-(2-chloro-5-methylbenzyl)-4-methyl-2-(pyridin-3-yl)-1H-imidazole-5-carboxylic acid]
Cc1nc(Oc2cccnc2)n(Cc2cc(Cl)ccc2Cl)c1C(=O)O [Compound A248, 1-(2,5-dichlorobenzyl)-4-methyl-2-(pyridin-3-yloxy)-1H-imidazole-5-carboxylic acid]
Clc1cncc(-c2ncc(-c3nnn[nH]3)n2Cc2cc(Cl)ccc2Cl)c1 [Compound A237, 3-chloro-5-(1-(2,5-dichlorobenzyl)-5-(1H-tetrazol-5-yl)-1H-imidazol-2-yl)pyridine]
Cc1nc(-c2cncc(C3CC3)c2)n(Cc2cc(Cl)ccc2Cl)c1C(=O)O [Compound A168, 2-(5-cyclopropylpyridin-3-yl)-1-(2,5-dichlorobenzyl)-4-methyl-1H-imidazole-5-carboxylic acid]
Cc1ccc(Cl)c(Cn2c(-c3cncc(Cl)c3)nc(C)c2C(=O)O)c1 [Compound A232, 1-(2-chloro-5-methylbenzyl)-2-(5-chloropyridin-3-yl)-4-methyl-1H-imidazole-5-carboxylic acid]
CC(C)(O)c1nc(-c2cncc(Cl)c2)n(Cc2cc(Cl)ccc2Cl)c1C(=O)O [Compound A213, 2-(5-chloropyridin-3-yl)-1-(2,5-dichlorobenzyl)-4-(2-hydroxypropan-2-yl)-1H-imidazole-5-carboxylic acid]
Cc1nc(-c2cncc(Cl)c2)n(Cc2csc3cccc(Cl)c23)c1C(=O)O [Compound A142, 1-((4-chlorobenzo[b]thiophen-3-yl)methyl)-2-(5-chloropyridin-3-yl)-4-methyl-1H-imidazole-5-carboxylic acid]
O=C(O)c1c(CO)nc(-c2cncc(Cl)c2)n1Cc1cc(Cl)ccc1Cl [Compound A191, 2-(5-chloropyridin-3-yl)-1-(2,5-dichlorobenzyl)-4-(hydroxymethyl)-1H-imidazole-5-carboxylic acid]
Cc1ccc(C)c(Cn2c(-c3cncc(Cl)c3)nc(C)c2C(=O)O)c1 [Compound A179, 2-(5-chloropyridin-3-yl)-1-(2,5-dimethylbenzyl)-4-methyl-1H-imidazole-5-carboxylic acid]
Cc1cncc(-c2nc(Cl)c(C(=O)O)n2Cc2cc(Cl)ccc2Cl)c1 [Compound A219, 4-chloro-1-(2,5-dichlorobenzyl)-2-(5-methylpyridin-3-yl)-1H-imidazole-5-carboxylic acid]
O=C(O)c1c(Oc2ccc(F)cc2)nc(-c2cccnc2)n1Cc1cc(Cl)ccc1Cl [Compound A100, 1-(2,5-dichlorobenzyl)-4-(4-fluorophenoxy)-2-(pyridin-3-yl)-1H-imidazole-5-carboxylic acid]
O=C(O)c1c(C(F)(F)F)nc(-c2cncc(C(F)(F)F)c2)n1Cc1cc(Cl)ccc1Cl [Compound A140, 1-(2,5-dichlorobenzyl)-4-(trifluoromethyl)-2-(5-(trifluoromethyl)pyridin-3-yl)-1H-imidazole-5-carboxylic acid]
CCOc1cncc(-c2nc(C)c(C(=O)O)n2Cc2cc(Cl)ccc2Cl)c1 [Compound A174, 1-(2,5-dichlorobenzyl)-2-(5-ethoxypyridin-3-yl)-4-methyl-1H-imidazole-5-carboxylic acid]
Cc1cncc(-c2ccc(C(=O)O)n2Cc2csc3cccc(Cl)c23)c1 [Compound B15, 1-((4-chlorobenzo[b]thiophen-3-yl)methyl)-2-(5-methylpyridin-3-yl)-1H-pyrrole-5-carboxylic acid]
O=C(O)c1c(C(F)F)nc(-c2cncc(Cl)c2)n1Cc1cc(Cl)ccc1Cl [Compound A207, 2-(5-chloropyridin-3-yl)-1-(2,5-dichlorobenzyl)-4-(difluoromethyl)-1H-imidazole-5-carboxylic acid]
O=C(O)c1c(C2CC2)nc(-c2cccnc2)n1Cc1cc(F)cc2ccsc12 [Compound A86, 4-cyclopropyl-1-((5-fluorobenzo[b]thiophen-7-yl)methyl)-2-(pyridin-3-yl)-1H-imidazole-5-carboxylic acid]
Cc1nc(-c2ccccn2)n(Cc2cc(Cl)ccc2Cl)c1C(=O)O [Compound A245, 1-(2,5-dichlorobenzyl)-4-methyl-2-(pyridin-2-yl)-1H-imidazole-5-carboxylic acid]
Cc1nc(-c2cccnc2)n(Cc2cc(C(F)(F)F)ccc2Cl)c1C(=O)O [Compound A43, 1-(2-chloro-5-(trifluoromethyl)benzyl)-4-methyl-2-(pyridin-3-yl)-1H-imidazole-5-carboxylic acid]
CC(C)c1nc(-c2cncc(Cl)c2)n(Cc2cc(Cl)ccc2Cl)c1C(=O)O [Compound A146, 2-(5-chloropyridin-3-yl)-1-(2,5-dichlorobenzyl)-4-isopropyl-1H-imidazole-5-carboxylic acid]

Inhibitory Activity (IC50 of uric acid transport inhibition), * *:
Cc1nc(-c2cccnc2)n(Cc2cc(Cl)ccc2F)c1C(=O)O [Compound A42, 1-(5-chloro-2-fluorobenzyl)-4-methyl-2-(pyridin-3-yl)-1H-imidazole-5-carboxylic acid]
Cc1nc(-c2cncc(F)c2)n(Cc2cc(C(F)(F)F)ccc2C(F)(F)F)c1C(=O)O [Compound A170, 1-(2,5-bis(trifluoromethyl)benzyl)-2-(5-fluoropyridin-3-yl)-4-methyl-1H-imidazole-5-carboxylic acid]
O=C(O)c1c(Cn2ccnc2)nc(-c2cncc(Cl)c2)n1Cc1cc(Cl)ccc1Cl [Compound A199, 4-((1H-imidazol-1-yl)methyl)-2-(5-chloropyridin-3-yl)-1-(2,5-dichlorobenzyl)-1H-imidazole-5-carboxylic acid]
Cc1ccc2ccccc2c1Cn1c(C(=O)O)ccc1-c1cccnc1 [Compound B4, 1-((2-methylnaphthalen-1-yl)methyl)-2-(pyridin-3-yl)-1H-pyrrole-5-carboxylic acid]
Cc1nc(-c2cncc(F)c2)n(Cc2csc3ccccc23)c1C(=O)O [Compound A133, 1-(benzo[b]thiophen-3-ylmethyl)-2-(5-fluoropyridin-3-yl)-4-methyl-1H-imidazole-5-carboxylic acid]
O=C(O)c1ccc(-c2cccnc2)n1Cc1cccc2cccnc12 [Compound B19, 2-(pyridin-3-yl)-1-(quinolin-8-ylmethyl)-1H-pyrrole-5-carboxylic acid]
Cc1nc(-c2cccnc2)n(Cc2cccc(Br)c2)c1C(=O)O [Compound A55, 1-(3-bromobenzyl)-4-methyl-2-(pyridin-3-yl)-1H-imidazole-5-carboxylic acid]

Same assay, conditions: HEK 293 cells expressing human URAT1; 14C-labeled uric acid 25 μM; uptake 37° C. for 5 min; read-out: Inhibitory Activity (IC50 of uric acid transport inhibition)

IC50, 2 to 20 µM:
Cc1nc(-c2cccnc2)n(Cc2ccccc2F)c1C(=O)O [Compound A48]
COc1cccc(F)c1Oc1cncc(-c2nc(C)c(C(=O)O)n2Cc2cc(Cl)ccc2Cl)c1 [Compound A184]
O=C(O)c1c(C(F)(F)F)nc(-c2cccnc2)n1Cc1cccc2cccc(Br)c12 [Compound A28]
O=C(O)c1c(C(F)(F)F)nc(-c2cccnc2)n1Cc1csc2cccc(C(F)(F)F)c12 [Compound A32]
O=C(O)c1c(CN2CCC(O)CC2)nc(-c2cncc(Cl)c2)n1Cc1cc(Cl)ccc1Cl [Compound A198]
Cc1nc(-c2cccnc2)n(Cc2ccc(F)c(Cl)c2)c1C(=O)O [Compound A75]
Cc1nc(-c2cncc(OCCO)c2)n(Cc2cc(Cl)ccc2Cl)c1C(=O)O [Compound A186]
